{
  "source": "BigSolDB 2.1",
  "data": [
    {"smiles": "COC(=O)c1ccnc(N)c1", "values": [
      {"measurement": "solubility (mole fraction)", "setting": "in DMF, 278.15 K", "result": 0.00726},
      {"measurement": "solubility (mole fraction)", "setting": "in DMF, 283.15 K", "result": 0.0087},
      {"measurement": "solubility (mole fraction)", "setting": "in DMF, 288.15 K", "result": 0.0105},
      {"measurement": "solubility (mole fraction)", "setting": "in DMF, 293.15 K", "result": 0.0126},
      {"measurement": "solubility (mole fraction)", "setting": "in DMF, 298.15 K", "result": 0.0152},
      {"measurement": "solubility (mole fraction)", "setting": "in DMF, 303.15 K", "result": 0.0183},
      {"measurement": "solubility (mole fraction)", "setting": "in DMF, 308.15 K", "result": 0.0216},
      {"measurement": "solubility (mole fraction)", "setting": "in DMF, 313.15 K", "result": 0.0249},
      {"measurement": "solubility (mole fraction)", "setting": "in DMF, 318.15 K", "result": 0.0292},
      {"measurement": "solubility (mole fraction)", "setting": "in DMF, 323.15 K", "result": 0.0339},
      {"measurement": "solubility (mole fraction)", "setting": "in acetonitrile, 278.15 K", "result": 0.00539},
      {"measurement": "solubility (mole fraction)", "setting": "in acetonitrile, 283.15 K", "result": 0.00665},
      {"measurement": "solubility (mole fraction)", "setting": "in acetonitrile, 288.15 K", "result": 0.00838},
      {"measurement": "solubility (mole fraction)", "setting": "in acetonitrile, 293.15 K", "result": 0.0104},
      {"measurement": "solubility (mole fraction)", "setting": "in acetonitrile, 298.15 K", "result": 0.0127},
      {"measurement": "solubility (mole fraction)", "setting": "in acetonitrile, 303.15 K", "result": 0.015},
      {"measurement": "solubility (mole fraction)", "setting": "in acetonitrile, 308.15 K", "result": 0.0177},
      {"measurement": "solubility (mole fraction)", "setting": "in acetonitrile, 313.15 K", "result": 0.0206},
      {"measurement": "solubility (mole fraction)", "setting": "in acetonitrile, 318.15 K", "result": 0.0241},
      {"measurement": "solubility (mole fraction)", "setting": "in acetonitrile, 323.15 K", "result": 0.0277},
      {"measurement": "solubility (mole fraction)", "setting": "in ethanol, 278.15 K", "result": 0.00321},
      {"measurement": "solubility (mole fraction)", "setting": "in ethanol, 283.15 K", "result": 0.00385},
      {"measurement": "solubility (mole fraction)", "setting": "in ethanol, 288.15 K", "result": 0.0047},
      {"measurement": "solubility (mole fraction)", "setting": "in ethanol, 293.15 K", "result": 0.00577},
      {"measurement": "solubility (mole fraction)", "setting": "in ethanol, 298.15 K", "result": 0.00694},
      {"measurement": "solubility (mole fraction)", "setting": "in ethanol, 303.15 K", "result": 0.00821},
      {"measurement": "solubility (mole fraction)", "setting": "in ethanol, 308.15 K", "result": 0.00976},
      {"measurement": "solubility (mole fraction)", "setting": "in ethanol, 313.15 K", "result": 0.0114},
      {"measurement": "solubility (mole fraction)", "setting": "in ethanol, 318.15 K", "result": 0.0132},
      {"measurement": "solubility (mole fraction)", "setting": "in ethanol, 323.15 K", "result": 0.0154},
      {"measurement": "solubility (mole fraction)", "setting": "in isopropanol, 278.15 K", "result": 0.00385},
      {"measurement": "solubility (mole fraction)", "setting": "in isopropanol, 283.15 K", "result": 0.0048},
      {"measurement": "solubility (mole fraction)", "setting": "in isopropanol, 288.15 K", "result": 0.00601},
      {"measurement": "solubility (mole fraction)", "setting": "in isopropanol, 293.15 K", "result": 0.00728},
      {"measurement": "solubility (mole fraction)", "setting": "in isopropanol, 298.15 K", "result": 0.00889},
      {"measurement": "solubility (mole fraction)", "setting": "in isopropanol, 303.15 K", "result": 0.0104},
      {"measurement": "solubility (mole fraction)", "setting": "in isopropanol, 308.15 K", "result": 0.0122},
      {"measurement": "solubility (mole fraction)", "setting": "in isopropanol, 313.15 K", "result": 0.0141},
      {"measurement": "solubility (mole fraction)", "setting": "in isopropanol, 318.15 K", "result": 0.0163},
      {"measurement": "solubility (mole fraction)", "setting": "in isopropanol, 323.15 K", "result": 0.019},
      {"measurement": "solubility (mole fraction)", "setting": "in methanol, 278.15 K", "result": 0.00173},
      {"measurement": "solubility (mole fraction)", "setting": "in methanol, 283.15 K", "result": 0.0021},
      {"measurement": "solubility (mole fraction)", "setting": "in methanol, 288.15 K", "result": 0.00255},
      {"measurement": "solubility (mole fraction)", "setting": "in methanol, 293.15 K", "result": 0.00312},
      {"measurement": "solubility (mole fraction)", "setting": "in methanol, 298.15 K", "result": 0.00379},
      {"measurement": "solubility (mole fraction)", "setting": "in methanol, 303.15 K", "result": 0.00453},
      {"measurement": "solubility (mole fraction)", "setting": "in methanol, 308.15 K", "result": 0.00557},
      {"measurement": "solubility (mole fraction)", "setting": "in methanol, 313.15 K", "result": 0.00665},
      {"measurement": "solubility (mole fraction)", "setting": "in methanol, 318.15 K", "result": 0.00798},
      {"measurement": "solubility (mole fraction)", "setting": "in methanol, 323.15 K", "result": 0.00946},
      {"measurement": "solubility (mole fraction)", "setting": "in n-propanol, 278.15 K", "result": 0.00422},
      {"measurement": "solubility (mole fraction)", "setting": "in n-propanol, 283.15 K", "result": 0.00528},
      {"measurement": "solubility (mole fraction)", "setting": "in n-propanol, 288.15 K", "result": 0.00655},
      {"measurement": "solubility (mole fraction)", "setting": "in n-propanol, 293.15 K", "result": 0.00813},
      {"measurement": "solubility (mole fraction)", "setting": "in n-propanol, 298.15 K", "result": 0.00977},
      {"measurement": "solubility (mole fraction)", "setting": "in n-propanol, 303.15 K", "result": 0.0117},
      {"measurement": "solubility (mole fraction)", "setting": "in n-propanol, 308.15 K", "result": 0.0137},
      {"measurement": "solubility (mole fraction)", "setting": "in n-propanol, 313.15 K", "result": 0.0163},
      {"measurement": "solubility (mole fraction)", "setting": "in n-propanol, 318.15 K", "result": 0.019},
      {"measurement": "solubility (mole fraction)", "setting": "in n-propanol, 323.15 K", "result": 0.0217},
      {"measurement": "solubility (mole fraction)", "setting": "in toluene, 278.15 K", "result": 0.00824},
      {"measurement": "solubility (mole fraction)", "setting": "in toluene, 283.15 K", "result": 0.00987},
      {"measurement": "solubility (mole fraction)", "setting": "in toluene, 288.15 K", "result": 0.0122},
      {"measurement": "solubility (mole fraction)", "setting": "in toluene, 293.15 K", "result": 0.0147},
      {"measurement": "solubility (mole fraction)", "setting": "in toluene, 298.15 K", "result": 0.0177},
      {"measurement": "solubility (mole fraction)", "setting": "in toluene, 303.15 K", "result": 0.0208},
      {"measurement": "solubility (mole fraction)", "setting": "in toluene, 308.15 K", "result": 0.0243},
      {"measurement": "solubility (mole fraction)", "setting": "in toluene, 313.15 K", "result": 0.0282},
      {"measurement": "solubility (mole fraction)", "setting": "in toluene, 318.15 K", "result": 0.0327},
      {"measurement": "solubility (mole fraction)", "setting": "in toluene, 323.15 K", "result": 0.0377},
      {"measurement": "solubility (mole fraction)", "setting": "in water, 278.15 K", "result": 0.000935},
      {"measurement": "solubility (mole fraction)", "setting": "in water, 283.15 K", "result": 0.00117},
      {"measurement": "solubility (mole fraction)", "setting": "in water, 288.15 K", "result": 0.00142},
      {"measurement": "solubility (mole fraction)", "setting": "in water, 293.15 K", "result": 0.00178},
      {"measurement": "solubility (mole fraction)", "setting": "in water, 298.15 K", "result": 0.00217},
      {"measurement": "solubility (mole fraction)", "setting": "in water, 303.15 K", "result": 0.00258},
      {"measurement": "solubility (mole fraction)", "setting": "in water, 308.15 K", "result": 0.00302},
      {"measurement": "solubility (mole fraction)", "setting": "in water, 313.15 K", "result": 0.00356},
      {"measurement": "solubility (mole fraction)", "setting": "in water, 318.15 K", "result": 0.00416},
      {"measurement": "solubility (mole fraction)", "setting": "in water, 323.15 K", "result": 0.00489}
    ]}
  ]
}
